Values of other authors as cited in patent US7422908B2, “Chemiluminescent 1,2-dioxetanes” (priority 2002, dated 2008).

Legend:
[1] = thermal decomposition
[2] = compared with 1,2-dioxetanes (14) and (15); CH3 group replaced with CH2CH2CH2COOH

SMILES | decomposes at (temperature) [1] [°C] | solubility in an aqueous system [2]
C1C2CC3CC1CC(C2)C31OOC12C1CC3CC(C1)CC2C3 (centres unmarked) [Dioxetane 5] | 150 | –
O=C(O)CCCOC1(c2cccc(OP(=O)(O)O)c2)OOC12C1CC3CC(C1)CC2C3 (centres unmarked) [Dioxetane 16] | – | more soluble in an aqueous system than 1,2-dioxetane (14) and (15)
